Measurements from the kinase profiling compilation of Christmann-Franck et al. (2016).

Key:
Experiment in all cases: radiometric filter-binding kinase assay, Kinase HotSpot
Conditions in all cases: compound 0.5 µM; ATP 10 µM
[1] = target: MARK1 (human) (UniProt Q9P0L2)
[2] = target: TTK (human) (UniProt P33981)
[3] = target: CDK2 CCNA2 (human) (UniProt P24941+P20248)
[4] = target: IRAK1 (human) (UniProt P51617)
[5] = target: AURKA (human) (UniProt O14965)
[6] = target: TAOK1 (human) (UniProt Q7L7X3)
[7] = target: ROCK1 (human) (UniProt Q13464)
[8] = target: EPHB1 (human) (UniProt P54762)
[9] = target: MAP3K14 (human) (UniProt Q99558)
[10] = target: PRKCI (human) (UniProt P41743)
[11] = target: DYRK2 (human) (UniProt Q92630)
DYRK2 (human), sequence (Q92630 whole entry, looked up): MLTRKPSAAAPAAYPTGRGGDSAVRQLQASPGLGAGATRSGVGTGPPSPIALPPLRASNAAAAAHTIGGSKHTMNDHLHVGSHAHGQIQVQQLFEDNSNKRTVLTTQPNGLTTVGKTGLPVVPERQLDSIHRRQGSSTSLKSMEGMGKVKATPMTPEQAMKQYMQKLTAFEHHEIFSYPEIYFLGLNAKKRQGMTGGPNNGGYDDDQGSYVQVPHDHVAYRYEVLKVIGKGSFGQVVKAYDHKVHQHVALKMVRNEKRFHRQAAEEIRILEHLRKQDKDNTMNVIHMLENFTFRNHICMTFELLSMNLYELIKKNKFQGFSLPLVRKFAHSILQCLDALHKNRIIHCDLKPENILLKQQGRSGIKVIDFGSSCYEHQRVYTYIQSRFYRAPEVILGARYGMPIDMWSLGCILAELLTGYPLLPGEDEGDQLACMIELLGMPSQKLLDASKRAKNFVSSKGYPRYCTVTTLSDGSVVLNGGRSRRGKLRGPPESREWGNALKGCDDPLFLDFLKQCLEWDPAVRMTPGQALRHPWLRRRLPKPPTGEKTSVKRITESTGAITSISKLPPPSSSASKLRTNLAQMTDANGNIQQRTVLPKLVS

[12] = target: NEK11 (human) (UniProt Q8NG66)
[13] = target: TSSK2 (human) (UniProt Q96PF2)
[14] = target: PAK3 (human) (UniProt O75914)
[15] = target: CDK1 CCNB1 (human) (UniProt P06493+P14635)
[16] = target: MERTK (human) (UniProt Q12866)
[17] = target: CAMKK2 (human) (UniProt Q96RR4)
CAMKK2 (human), sequence (Q96RR4 whole entry, looked up): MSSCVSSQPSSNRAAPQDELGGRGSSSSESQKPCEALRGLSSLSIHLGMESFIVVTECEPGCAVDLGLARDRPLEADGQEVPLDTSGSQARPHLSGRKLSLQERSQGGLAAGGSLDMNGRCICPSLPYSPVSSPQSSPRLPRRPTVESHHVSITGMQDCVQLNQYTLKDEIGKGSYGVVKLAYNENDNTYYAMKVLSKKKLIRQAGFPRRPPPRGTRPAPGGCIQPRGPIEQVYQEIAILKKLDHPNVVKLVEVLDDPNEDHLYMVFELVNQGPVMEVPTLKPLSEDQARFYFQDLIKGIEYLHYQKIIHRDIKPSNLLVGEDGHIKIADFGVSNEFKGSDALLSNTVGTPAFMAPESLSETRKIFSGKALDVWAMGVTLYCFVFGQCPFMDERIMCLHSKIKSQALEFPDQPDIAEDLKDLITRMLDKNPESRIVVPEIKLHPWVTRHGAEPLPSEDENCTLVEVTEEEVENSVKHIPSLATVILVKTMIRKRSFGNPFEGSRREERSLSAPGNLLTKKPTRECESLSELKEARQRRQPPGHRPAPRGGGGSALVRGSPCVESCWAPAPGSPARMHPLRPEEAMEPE

[18] = target: MAPKAPK3 (human) (UniProt Q16644)
MAPKAPK3 (human), sequence (Q16644 whole entry, looked up): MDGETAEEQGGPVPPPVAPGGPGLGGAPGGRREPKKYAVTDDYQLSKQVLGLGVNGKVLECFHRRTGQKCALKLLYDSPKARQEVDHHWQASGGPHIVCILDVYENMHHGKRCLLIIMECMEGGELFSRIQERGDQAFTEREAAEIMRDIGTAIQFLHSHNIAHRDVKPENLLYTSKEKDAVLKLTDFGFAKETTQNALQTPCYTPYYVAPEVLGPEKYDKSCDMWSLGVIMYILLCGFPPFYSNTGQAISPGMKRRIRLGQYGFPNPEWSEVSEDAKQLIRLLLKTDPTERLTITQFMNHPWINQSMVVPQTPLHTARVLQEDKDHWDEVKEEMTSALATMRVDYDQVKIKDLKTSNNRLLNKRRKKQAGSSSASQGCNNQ

[19] = target: RIPK2 (human) (UniProt O43353)
[20] = target: CDK5 CDK5R1 p35 (human) (UniProt Q00535+Q15078)
[21] = target: CDK6 CCND3 (human) (UniProt P30281+Q00534)
[22] = target: PKN2 (human) (UniProt Q16513)
PKN2 (human), sequence (Q16513 whole entry, looked up): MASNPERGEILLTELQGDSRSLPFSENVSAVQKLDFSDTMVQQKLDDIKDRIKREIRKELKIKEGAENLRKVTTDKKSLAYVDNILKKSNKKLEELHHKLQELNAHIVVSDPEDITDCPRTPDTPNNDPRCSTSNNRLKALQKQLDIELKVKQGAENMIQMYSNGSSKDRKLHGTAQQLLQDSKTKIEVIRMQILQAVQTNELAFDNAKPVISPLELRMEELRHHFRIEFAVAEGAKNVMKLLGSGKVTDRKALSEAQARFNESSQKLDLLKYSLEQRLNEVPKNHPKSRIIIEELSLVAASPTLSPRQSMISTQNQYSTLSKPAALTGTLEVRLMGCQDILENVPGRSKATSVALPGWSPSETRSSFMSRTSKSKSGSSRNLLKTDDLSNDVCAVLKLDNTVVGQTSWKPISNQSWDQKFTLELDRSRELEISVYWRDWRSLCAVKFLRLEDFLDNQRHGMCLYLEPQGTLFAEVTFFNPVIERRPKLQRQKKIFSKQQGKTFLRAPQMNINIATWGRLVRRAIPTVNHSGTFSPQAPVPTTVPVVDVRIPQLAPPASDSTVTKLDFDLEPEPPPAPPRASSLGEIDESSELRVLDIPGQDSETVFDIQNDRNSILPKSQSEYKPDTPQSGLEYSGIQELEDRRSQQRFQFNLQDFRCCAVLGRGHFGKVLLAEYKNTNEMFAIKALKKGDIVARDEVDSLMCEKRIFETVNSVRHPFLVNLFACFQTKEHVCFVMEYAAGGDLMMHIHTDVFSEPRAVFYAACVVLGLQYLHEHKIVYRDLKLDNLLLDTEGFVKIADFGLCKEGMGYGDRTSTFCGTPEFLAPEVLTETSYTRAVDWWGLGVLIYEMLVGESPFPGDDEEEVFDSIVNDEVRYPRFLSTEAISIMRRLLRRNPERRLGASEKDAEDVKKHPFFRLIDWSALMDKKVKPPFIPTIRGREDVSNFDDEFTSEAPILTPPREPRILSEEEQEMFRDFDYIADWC

[23] = target: MAP3K10 (human) (UniProt Q02779)
[24] = target: GRK7 (human) (UniProt Q8WTQ7)
[25] = target: FGFR2 (human) (UniProt P21802)
[26] = target: TNK2 (human) (UniProt Q07912)
[27] = target: PRKCE (human) (UniProt Q02156)
PRKCE (human), sequence (Q02156 whole entry, looked up): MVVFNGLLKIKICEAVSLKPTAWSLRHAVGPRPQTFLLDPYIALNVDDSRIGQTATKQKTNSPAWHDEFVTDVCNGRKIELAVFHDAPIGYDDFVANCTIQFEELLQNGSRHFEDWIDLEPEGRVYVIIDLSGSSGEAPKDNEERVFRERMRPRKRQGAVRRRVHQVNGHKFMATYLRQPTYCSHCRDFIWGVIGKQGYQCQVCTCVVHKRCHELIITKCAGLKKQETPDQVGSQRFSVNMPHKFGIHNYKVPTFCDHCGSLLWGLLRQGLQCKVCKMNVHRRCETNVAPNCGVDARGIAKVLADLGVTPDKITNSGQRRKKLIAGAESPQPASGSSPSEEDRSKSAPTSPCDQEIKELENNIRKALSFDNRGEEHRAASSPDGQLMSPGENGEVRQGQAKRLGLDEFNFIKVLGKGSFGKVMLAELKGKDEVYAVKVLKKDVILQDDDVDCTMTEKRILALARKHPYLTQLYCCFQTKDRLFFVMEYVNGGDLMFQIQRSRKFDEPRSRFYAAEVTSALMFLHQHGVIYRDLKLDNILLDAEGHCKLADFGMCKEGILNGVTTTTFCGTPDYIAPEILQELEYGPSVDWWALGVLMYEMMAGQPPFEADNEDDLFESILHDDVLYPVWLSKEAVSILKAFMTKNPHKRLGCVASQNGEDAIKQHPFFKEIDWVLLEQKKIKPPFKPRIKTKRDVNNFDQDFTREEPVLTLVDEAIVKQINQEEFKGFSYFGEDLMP

[28] = target: CDC42BPA (human) (UniProt Q5VT25)
[29] = target: MAP3K5 (human) (UniProt Q99683)
[30] = target: PTK2 (human) (UniProt Q05397)
[31] = target: CAMK1 (human) (UniProt Q14012)
[32] = target: CSF1R (human) (UniProt P07333)
[33] = target: MAPK11 (human) (UniProt Q15759)
MAPK11 (human), sequence (Q15759 whole entry, looked up): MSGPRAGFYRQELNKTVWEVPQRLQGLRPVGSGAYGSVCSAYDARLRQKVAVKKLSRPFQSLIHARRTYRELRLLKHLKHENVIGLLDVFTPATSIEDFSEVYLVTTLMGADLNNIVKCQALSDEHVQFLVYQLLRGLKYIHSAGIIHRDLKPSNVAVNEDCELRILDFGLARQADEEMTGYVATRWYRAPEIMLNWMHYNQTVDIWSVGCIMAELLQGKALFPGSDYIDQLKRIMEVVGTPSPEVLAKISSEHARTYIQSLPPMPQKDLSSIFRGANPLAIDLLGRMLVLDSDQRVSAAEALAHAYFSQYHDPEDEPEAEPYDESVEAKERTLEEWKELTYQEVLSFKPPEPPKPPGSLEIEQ

[34] = target: PDGFRB (human) (UniProt P09619)
[35] = target: MYLK2 (human) (UniProt Q9H1R3)
[36] = target: MAPKAPK5 (human) (UniProt Q8IW41)
MAPKAPK5 (human), sequence (Q8IW41 whole entry, looked up): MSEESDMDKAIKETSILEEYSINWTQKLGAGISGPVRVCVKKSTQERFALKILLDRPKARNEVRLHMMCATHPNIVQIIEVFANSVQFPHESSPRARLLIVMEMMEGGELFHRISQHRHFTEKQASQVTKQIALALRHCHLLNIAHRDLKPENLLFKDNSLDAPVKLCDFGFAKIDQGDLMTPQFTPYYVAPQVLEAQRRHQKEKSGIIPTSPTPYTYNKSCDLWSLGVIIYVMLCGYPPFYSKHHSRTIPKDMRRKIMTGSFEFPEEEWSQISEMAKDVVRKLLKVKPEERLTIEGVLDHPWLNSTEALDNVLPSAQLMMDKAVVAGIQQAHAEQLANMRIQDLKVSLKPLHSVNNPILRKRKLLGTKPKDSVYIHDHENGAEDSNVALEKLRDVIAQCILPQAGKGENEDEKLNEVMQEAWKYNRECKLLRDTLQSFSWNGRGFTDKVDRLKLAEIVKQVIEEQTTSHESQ

[37] = target: ERBB4 (human) (UniProt Q15303)
[38] = target: PKN1 (human) (UniProt Q16512)
[39] = target: CDK7 CCNH MNAT1 (human) (UniProt P50613+P51948+P51946)
[40] = target: TGFBR2 (human) (UniProt P37173)
[41] = target: CDK9 CCNK (human) (UniProt O75909+P50750)

MARK1 (human), sequence (Q9P0L2 whole entry, looked up): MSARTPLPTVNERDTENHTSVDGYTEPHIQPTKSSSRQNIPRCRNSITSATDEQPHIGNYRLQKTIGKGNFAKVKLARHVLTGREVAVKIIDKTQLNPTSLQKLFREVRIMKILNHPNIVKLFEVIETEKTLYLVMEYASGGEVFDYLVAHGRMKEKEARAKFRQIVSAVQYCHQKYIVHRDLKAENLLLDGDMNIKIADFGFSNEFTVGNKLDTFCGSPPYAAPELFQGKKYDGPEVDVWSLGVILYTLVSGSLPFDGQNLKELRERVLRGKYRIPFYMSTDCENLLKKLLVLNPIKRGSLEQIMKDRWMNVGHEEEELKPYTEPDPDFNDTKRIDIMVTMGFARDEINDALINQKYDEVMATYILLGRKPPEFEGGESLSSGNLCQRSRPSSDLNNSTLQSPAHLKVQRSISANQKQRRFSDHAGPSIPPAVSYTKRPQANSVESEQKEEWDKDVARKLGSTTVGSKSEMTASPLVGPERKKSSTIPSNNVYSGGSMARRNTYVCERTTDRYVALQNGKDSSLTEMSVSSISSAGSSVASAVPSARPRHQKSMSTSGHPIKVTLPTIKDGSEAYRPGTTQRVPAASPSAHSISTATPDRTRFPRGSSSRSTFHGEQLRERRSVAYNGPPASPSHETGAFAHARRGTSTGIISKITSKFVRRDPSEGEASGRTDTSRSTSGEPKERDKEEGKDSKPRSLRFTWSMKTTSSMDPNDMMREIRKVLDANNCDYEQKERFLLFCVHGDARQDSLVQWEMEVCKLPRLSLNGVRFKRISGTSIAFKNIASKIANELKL

`Cn1c2ccccc2c2c3c(c4c5ccccc5n(CCC#N)c4c21)CNC3=O` was tested, and the residual activity [1] was 20.8%, the residual activity [2] was 69% and the residual activity [3] was 20.8%. It also gave a residual activity [4] of 6.43%, a residual activity [5] of 56.8% and a residual activity [6] of 43.9%. It also gave a residual activity [7] of 61.9%, a residual activity [8] of 95% and a residual activity [9] of 84.1%. It also gave a residual activity [10] of 91.6%, a residual activity [11] of 48.9% and a residual activity [12] of 110%. For the same compound, the residual activity [13] was 74.3%, the residual activity [14] was 122% and the residual activity [15] was 38.7%. It also gave a residual activity [16] of 59.9%, a residual activity [17] of 3.88% and a residual activity [18] of 83.7%. For the same compound, the residual activity [19] was 55.1%, the residual activity [20] was 8.52% and the residual activity [21] was 52.1%. For the same compound, the residual activity [22] was 67.7%, the residual activity [23] was 25.8% and the residual activity [24] was 37.9%. It also gave a residual activity [25] of 79.8%, a residual activity [26] of 2.78% and a residual activity [27] of 58.5%. For the same compound, the residual activity [28] was 89.9%, the residual activity [29] was 49.8% and the residual activity [30] was 77%. For the same compound, the residual activity [31] was 94.2%, the residual activity [32] was 84.1% and the residual activity [33] was 99.5%. The residual activity [34] was 60.6%, the residual activity [35] was 59.6% and the residual activity [36] was 127%. The residual activity [37] was 100%, the residual activity [38] was 10.3% and the residual activity [39] was 84.6%. For the same compound, the residual activity [40] was 117% and the residual activity [41] was 55.2%.
In the case of `CC(C)(C)c1cc(C=C(C#N)C#N)cc(Br)c1O`, the residual activity [1] is reported as 98.8%, the residual activity [2] is reported as 101% and the residual activity [3] is reported as 90.7%. It also gave a residual activity [4] of 105%, a residual activity [5] of 89.8% and a residual activity [6] of 97.9%. The residual activity [7] was 82.9%, the residual activity [8] was 114% and the residual activity [9] was 97.3%. The residual activity [10] was 100%, the residual activity [11] was 104% and the residual activity [12] was 87%. For the same compound, the residual activity [13] was 96.6%, the residual activity [14] was 96.9% and the residual activity [15] was 72.6%. For the same compound, the residual activity [16] was 97.3%, the residual activity [17] was 92.5% and the residual activity [18] was 103%. The residual activity [19] was 32.8%, the residual activity [20] was 102% and the residual activity [21] was 89.3%. For the same compound, the residual activity [22] was 64.3%, the residual activity [23] was 100% and the residual activity [24] was 107%. The residual activity [25] was 96.4%, the residual activity [26] was 93.1% and the residual activity [27] was 108%. For the same compound, the residual activity [28] was 101%, the residual activity [29] was 100% and the residual activity [30] was 107%. For the same compound, the residual activity [31] was 97.5%, the residual activity [32] was 96.8% and the residual activity [33] was 100%. It also gave a residual activity [34] of 104%, a residual activity [35] of 99.3% and a residual activity [36] of 97.4%. It also gave a residual activity [37] of 94%, a residual activity [38] of 94.5% and a residual activity [39] of 98.5%. For the same compound, the residual activity [40] was 93.8% and the residual activity [41] was 109%.
`Cc1cccc(-c2nc(C(C)(C)C)[nH]c2-c2ccc3c(c2)OCO3)n1` gave a residual activity [1] of 85.1%, a residual activity [2] of 89% and a residual activity [3] of 117%. The residual activity [4] was 118%, the residual activity [5] was 93.4% and the residual activity [6] was 97.6%. The residual activity [7] was 101%, the residual activity [8] was 95.5% and the residual activity [9] was 109%. It also gave a residual activity [10] of 92.8%, a residual activity [11] of 108% and a residual activity [12] of 90.3%. For the same compound, the residual activity [13] was 92.7%, the residual activity [14] was 95.9% and the residual activity [15] was 100%. For the same compound, the residual activity [16] was 82%, the residual activity [17] was 96% and the residual activity [18] was 94.1%. The residual activity [19] was 79%, the residual activity [20] was 98.5% and the residual activity [21] was 98%. For the same compound, the residual activity [22] was 93.5%, the residual activity [23] was 99.3% and the residual activity [24] was 103%. The residual activity [25] was 105%, the residual activity [26] was 99.3% and the residual activity [27] was 97.9%. For the same compound, the residual activity [28] was 89.6%, the residual activity [29] was 103% and the residual activity [30] was 98.1%. For the same compound, the residual activity [31] was 99.8%, the residual activity [32] was 102% and the residual activity [33] was 93%. It also gave a residual activity [34] of 106%, a residual activity [35] of 99.2% and a residual activity [36] of 96.1%. The residual activity [37] was 83.1%, the residual activity [38] was 108% and the residual activity [39] was 106%. It also gave a residual activity [40] of 105% and a residual activity [41] of 106%.
`Ic1cccc(CSc2nnc(-c3ccncc3)o2)c1` was tested, and the residual activity [1] was 111%, the residual activity [2] was 103% and the residual activity [3] was 100%. The residual activity [4] was 121%, the residual activity [5] was 95.8% and the residual activity [6] was 101%. For the same compound, the residual activity [7] was 88%, the residual activity [8] was 101% and the residual activity [9] was 88.3%. It also gave a residual activity [10] of 96.4%, a residual activity [11] of 96.8% and a residual activity [12] of 113%. The residual activity [13] was 110%, the residual activity [14] was 92.9% and the residual activity [15] was 92%. The residual activity [16] was 96.4%, the residual activity [17] was 85.1% and the residual activity [18] was 109%. It also gave a residual activity [19] of 86.3%, a residual activity [20] of 102% and a residual activity [21] of 102%. The residual activity [22] was 100%, the residual activity [23] was 102% and the residual activity [24] was 112%. It also gave a residual activity [25] of 101%, a residual activity [26] of 101% and a residual activity [27] of 86.5%. It also gave a residual activity [28] of 98.4%, a residual activity [29] of 91.7% and a residual activity [30] of 106%. The residual activity [31] was 102%, the residual activity [32] was 104% and the residual activity [33] was 96.9%. It also gave a residual activity [34] of 97.7%, a residual activity [35] of 101% and a residual activity [36] of 83.6%. The residual activity [37] was 96.4%, the residual activity [38] was 98.6% and the residual activity [39] was 96.7%. The residual activity [40] was 121% and the residual activity [41] was 105%.
Work on `c1ccc2c(-c3ccncc3)c[nH]c2c1` yielded a residual activity [1] of 94.5%, a residual activity [2] of 112% and a residual activity [3] of 99.7%. The residual activity [4] was 127%, the residual activity [5] was 78% and the residual activity [6] was 88.4%. For the same compound, the residual activity [7] was 84.2%, the residual activity [8] was 108% and the residual activity [9] was 112%. For the same compound, the residual activity [10] was 82.4%, the residual activity [11] was 77.5% and the residual activity [12] was 76.9%. The residual activity [13] was 96.9%, the residual activity [14] was 102% and the residual activity [15] was 96%. The residual activity [16] was 93%, the residual activity [17] was 113% and the residual activity [18] was 97.8%. The residual activity [19] was 89.9%, the residual activity [20] was 96% and the residual activity [21] was 101%. For the same compound, the residual activity [22] was 80.8%, the residual activity [23] was 101% and the residual activity [24] was 98.4%. For the same compound, the residual activity [25] was 105%, the residual activity [26] was 96.1% and the residual activity [27] was 81.5%. For the same compound, the residual activity [28] was 99.9%, the residual activity [29] was 109% and the residual activity [30] was 97.7%. For the same compound, the residual activity [31] was 108%, the residual activity [32] was 101% and the residual activity [33] was 112%. For the same compound, the residual activity [34] was 105%, the residual activity [35] was 96.2% and the residual activity [36] was 96.1%. It also gave a residual activity [37] of 83.7%, a residual activity [38] of 66.4% and a residual activity [39] of 97%. It also gave a residual activity [40] of 119% and a residual activity [41] of 91.2%.
